How the values were obtained:
Tetranychus urticae = test: Efficacy test against Tetranychus urticae (spray on common beans); assay type: in vivo; settings: 125 ppm by mass, sprayed on common beans; female adults; 25° C., humidity 65%; 10 days after spraying
Tetranychus kanzawai = test: Efficacy test against Tetranychus kanzawai (spray on mung beans); assay type: in vivo; settings: 125 ppm by mass, sprayed on mung beans; female adults; 25° C., humidity 65%; 10 days after spraying

With `CSCC1CCN(C(=O)c2cc(C#N)c(-c3ccc(C(F)(F)F)cc3)nc2C)CC1` [a-90] the acaricidal rate (Tetranychus urticae) was “a-90%” and the acaricidal rate (Tetranychus kanzawai) was “a-90%”.

With `CCSCC1CCN(C(=O)c2cc(C#N)c(-c3ccc(C(F)(F)F)cc3)nc2CSC)CC1` [a-190] the acaricidal rate (Tetranychus urticae) was “a-190%”.

`CCSCC1CCN(C(=O)c2cc(C(N)=S)c(-c3ccc(C(F)(F)F)cc3)nc2C(F)(F)C(F)(F)F)CC1` [b-90] was tested, and the acaricidal rate (Tetranychus urticae) was “b-90%”.

Reference: patent US20200163336A1, “CYCLIC AMINE COMPOUND AND PEST CONTROL AGENT” (Nippon Soda Co., Ltd., priority 2017, published 2020)
